Source: PMC9260854 (Biochemistry, 2022)
Changes are numbered by the printed parent chain.

What was measured:
[1] = target: T1, SULT2B1b S347D spin-labeled at residue 247 (Homo sapiens, UniProt O00204, C225S/C278S/C81S/S247C/S347D); test: Initial-rate parameters, spin-labeled mutant 247; assay type: biochemical
T1 sequence (O00204 1-365 C81S/C225S/S247C/C278S/S347D): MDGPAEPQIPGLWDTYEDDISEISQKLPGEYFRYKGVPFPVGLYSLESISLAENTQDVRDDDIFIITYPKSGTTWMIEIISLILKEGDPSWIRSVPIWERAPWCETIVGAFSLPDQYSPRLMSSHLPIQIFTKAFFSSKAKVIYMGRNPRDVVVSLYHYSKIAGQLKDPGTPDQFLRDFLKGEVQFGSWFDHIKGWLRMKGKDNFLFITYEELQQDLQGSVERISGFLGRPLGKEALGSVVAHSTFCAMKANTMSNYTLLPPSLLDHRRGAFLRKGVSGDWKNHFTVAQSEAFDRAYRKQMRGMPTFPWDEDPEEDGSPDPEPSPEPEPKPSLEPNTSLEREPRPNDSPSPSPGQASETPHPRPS

[2] = target: T2, SULT2B1b C81S, C225S, C278S, S347D (Homo sapiens, UniProt O00204, C225S/C278S/C81S/S347D); test: Initial-rate parameters, non DTNB-reactive scaffold; assay type: biochemical
T2 sequence (O00204 1-365 C81S/C225S/C278S/S347D): T1 sequence (O00204 1-365 C81S/C225S/S247C/C278S/S347D) with C247S

[3] = target: T3, SULT2B1b S347D spin-labeled at residue 171 (Homo sapiens, UniProt O00204, C225S/C278S/C81S/S347D/T171C); test: Initial-rate parameters, spin-labeled mutant 171; assay type: biochemical
T3 sequence (O00204 1-365 C81S/T171C/C225S/C278S/S347D): T1 sequence (O00204 1-365 C81S/C225S/S247C/C278S/S347D) with T171C, C247S

[4] = target: T4, native non-tagged SULT2B1b (Homo sapiens, UniProt O00204); test: Initial-rate 1-HP sulfonation inhibition, native; assay type: biochemical; conditions: native enzyme
T4 sequence (O00204 1-365): T1 sequence (O00204 1-365 C81S/C225S/S247C/C278S/S347D) with S81C, S225C, C247S, S278C, D347S

SULT2B1a = target: T5, SULT2B1a (Homo sapiens, UniProt O00204); test: Initial-rate 1-HP sulfonation inhibition; assay type: biochemical
T5 sequence (O00204 1-350 isoform O00204-2): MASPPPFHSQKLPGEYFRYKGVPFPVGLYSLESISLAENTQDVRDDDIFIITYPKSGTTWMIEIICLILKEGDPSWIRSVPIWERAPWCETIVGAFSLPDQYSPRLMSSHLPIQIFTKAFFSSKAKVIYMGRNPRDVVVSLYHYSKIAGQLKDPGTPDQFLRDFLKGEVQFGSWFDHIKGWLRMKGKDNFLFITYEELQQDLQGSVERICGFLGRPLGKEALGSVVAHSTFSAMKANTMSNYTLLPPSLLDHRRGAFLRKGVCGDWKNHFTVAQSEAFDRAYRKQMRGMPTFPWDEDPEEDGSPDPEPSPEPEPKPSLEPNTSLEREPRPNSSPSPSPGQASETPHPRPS

SULT2B1b, S347D, Y257A = target: T6, SULT2B1b, S347D, Y257A (Homo sapiens, UniProt O00204, S347D/Y257A); test: Initial-rate parameters, direct-contact mutant Y257A
T6 sequence (O00204 1-365 Y257A/S347D): T1 sequence (O00204 1-365 C81S/C225S/S247C/C278S/S347D) with S81C, S225C, C247S, Y257A, S278C

Question: What does the source list for `O=c1c(O)c(-c2ccc(O)c(O)c2)oc2cc(O)cc(O)c12` [quercetin]?
Answer: Ki [1]: 320 nM; Ki [2]: 300 nM; Ki [3]: 350 nM; α WT (quercetin) [4]: 0.08 ± 0.01; inhibition by quercetin (SULT2B1a; concentrations as high as 10 μM): does not detectably inhibit; inhibition by quercetin (SULT2B1a; up to 100 μM quercetin): No inhibition was detected; Ki (SULT2B1b, S347D, Y257A): 1600 nM
